Structures can show the parent of a compound that is named as a salt. Where two headings read alike, the source gives them in different places.

Data set [1] in a line: Solubility of compounds in sodium chloride solution. Format: physicochemical. Conditions: saline or isotonic, thermodynamic from solid, ambient temperature. On the procedure: Compound solubility was measured in water, 0.12 or 0.9% sodium chloride solution at ambient temperature for up to 10 days. Using a UV/Visable Spectrophotometer and applying Beer's Law with the calculated extinction coefficient of amiloride (18.6 mM, absorbance values at 362 nm taken from D. Mazzo 1986) the free base concentration in solution was calculated at specified time points. All samples were stored for the duration of the experiment in a single/closure system consisting of glass vials with a stopper-top closure. The vials were maintained at ambient temperature, in the dark, and in the upright position. Compound stability was measured using reverse phase high performance liquid chromatography on the final filtered pulled sample (day 10).
Table 2 gives the solubility in saline of selected amide bis methane sulfonic acid salts and compares them to the mono addition methane sulfonic acid salt of PSA 9714.

In data set [2] the target is T1, ENaC (epithelial sodium channel) (Canis lupus familiaris, UniProt A0A8I3MKE6+A0A8I3Q679+Q95165).
T1 construct: endogenous in cells; host or cells: primary canine bronchial (airway) epithelial cells cultured at air-liquid interface, mounted in Ussing chambers
T1 sequence (A0A8I3Q679 1-649): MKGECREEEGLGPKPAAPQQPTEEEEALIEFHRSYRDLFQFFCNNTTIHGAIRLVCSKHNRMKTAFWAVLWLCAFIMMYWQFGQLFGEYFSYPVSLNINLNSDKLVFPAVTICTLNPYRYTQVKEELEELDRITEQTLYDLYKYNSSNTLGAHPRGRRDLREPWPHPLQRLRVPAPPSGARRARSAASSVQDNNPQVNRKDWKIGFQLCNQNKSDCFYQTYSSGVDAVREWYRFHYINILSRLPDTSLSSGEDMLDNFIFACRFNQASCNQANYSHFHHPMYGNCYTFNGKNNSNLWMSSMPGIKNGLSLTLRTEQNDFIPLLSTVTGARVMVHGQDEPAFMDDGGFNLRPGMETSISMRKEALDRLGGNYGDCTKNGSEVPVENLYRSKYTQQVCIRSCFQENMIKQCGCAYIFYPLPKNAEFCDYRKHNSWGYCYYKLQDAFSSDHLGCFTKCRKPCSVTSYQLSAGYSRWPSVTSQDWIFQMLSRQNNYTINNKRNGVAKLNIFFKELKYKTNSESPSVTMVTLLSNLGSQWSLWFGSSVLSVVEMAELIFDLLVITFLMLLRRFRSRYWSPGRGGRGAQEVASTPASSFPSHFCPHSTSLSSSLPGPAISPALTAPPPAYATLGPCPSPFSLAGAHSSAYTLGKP
T1 sequence (Q95165 1-641): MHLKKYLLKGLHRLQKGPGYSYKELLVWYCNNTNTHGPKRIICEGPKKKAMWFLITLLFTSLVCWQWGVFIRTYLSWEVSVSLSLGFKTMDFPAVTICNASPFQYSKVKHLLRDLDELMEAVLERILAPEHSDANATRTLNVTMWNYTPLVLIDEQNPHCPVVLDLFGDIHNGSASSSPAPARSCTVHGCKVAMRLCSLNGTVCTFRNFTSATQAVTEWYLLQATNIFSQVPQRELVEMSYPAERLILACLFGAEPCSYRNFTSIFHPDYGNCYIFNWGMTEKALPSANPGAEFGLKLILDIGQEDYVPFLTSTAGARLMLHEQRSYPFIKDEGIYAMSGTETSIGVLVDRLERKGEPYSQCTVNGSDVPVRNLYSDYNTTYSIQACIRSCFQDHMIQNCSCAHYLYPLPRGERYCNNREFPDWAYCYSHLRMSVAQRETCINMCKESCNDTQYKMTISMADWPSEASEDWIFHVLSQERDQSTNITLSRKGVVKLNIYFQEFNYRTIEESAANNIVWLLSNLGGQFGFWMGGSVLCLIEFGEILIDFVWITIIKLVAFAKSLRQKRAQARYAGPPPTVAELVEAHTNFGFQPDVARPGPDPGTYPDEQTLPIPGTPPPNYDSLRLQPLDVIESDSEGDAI
T1 sequence (A0A8I3MKE6 1-646): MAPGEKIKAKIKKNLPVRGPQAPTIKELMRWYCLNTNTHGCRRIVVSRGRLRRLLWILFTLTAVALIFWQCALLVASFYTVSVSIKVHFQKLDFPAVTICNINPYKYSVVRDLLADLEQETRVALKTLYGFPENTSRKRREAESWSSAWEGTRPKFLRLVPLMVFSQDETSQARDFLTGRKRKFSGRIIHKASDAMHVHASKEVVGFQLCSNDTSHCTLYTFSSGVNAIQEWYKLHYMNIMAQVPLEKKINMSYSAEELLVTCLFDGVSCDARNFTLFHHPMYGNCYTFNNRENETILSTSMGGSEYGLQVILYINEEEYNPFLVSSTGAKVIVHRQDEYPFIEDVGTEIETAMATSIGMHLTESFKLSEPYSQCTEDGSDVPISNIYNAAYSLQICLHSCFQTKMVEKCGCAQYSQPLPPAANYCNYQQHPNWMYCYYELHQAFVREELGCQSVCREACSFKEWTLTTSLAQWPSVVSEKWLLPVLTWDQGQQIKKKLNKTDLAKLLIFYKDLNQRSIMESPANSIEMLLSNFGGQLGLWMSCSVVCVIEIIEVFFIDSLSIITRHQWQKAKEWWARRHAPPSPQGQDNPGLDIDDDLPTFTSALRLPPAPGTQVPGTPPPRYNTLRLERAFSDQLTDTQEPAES
As to the kind of experiment: Epithelial sodium channel blocking activity (short circuit current, Ussing chambers) in canine bronchial epithelium. Format: cell-based. The settings on record: for Fold Amiloride (PSA4022 = 100): relative potency, PSA4022 = 100, using IC50 from PSA4022 in same run. The method, then: One assay used to assess mechanism of action and/or potency of the compounds of Formula I involves the determination of lumenal drug inhibition of airway epithelial sodium currents measured under short circuit current (ISC) using airway epithelial monolayers mounted in Ussing chambers. Cells obtained from freshly excised human, dog or sheep airways are seeded onto porous 0.4 micron Snapwell™ Inserts (CoStar), cultured at air-liquid interface (ALI) conditions in hormonally defined media, and assayed for sodium transport activity (ISC in μA/cm^2) while bathed in Krebs Bicarbonate Ringer (KBR) in Ussing chambers. All test drug additions are to the lumenal bath with half-log dose addition protocols (from 1×10^−11 M to 3×10^−5 M), and the cumulative change in ISC (inhibition) recorded. All drugs are prepared in dimethyl sulfoxide as stock solutions at a concentration of 1×10^−2 M and stored at −20° C. Six preparations are typically run in parallel; one preparation per run incorporates a positive control. All data from the voltage clamps are collected via a computer interface and analyzed off-line.
Dose-effect relationships for all compounds are considered and analyzed by the Prism 3.0 program. EC50 values, maximal effective concentrations are calculated and compared to positive controls.
Utilizing the tests set forth above, Table 3 summaries the ENaC blocking ability of some of the amides of this invention when assayed in canine bronchial epithelium.

Setting [3] is: 0.12% sodium chloride solution, 0.12% NaCl solution, read-out: S1 = Solubility in 0.12% NaCl Solution.

In turn, `N=C(NCCCCc1ccc(OCC(=O)OCCN2CCCCC2)cc1)NC(=O)c1nc(Cl)c(N)nc1N` came in with a melting point of 60 to 62 °C.

In turn, `N=C(NCCCCc1ccc(OCC(=O)OCCN)cc1)NC(=O)c1nc(Cl)c(N)nc1N` (as salt: hydrochloride) came in with a melting point of 66 to 68 °C.

`N=C(NCCCCc1ccc(OCC(=O)OCC2CCNCC2)cc1)NC(=O)c1nc(Cl)c(N)nc1N` (as salt: hydrochloride) gave a melting point of 100 to 102 °C.

As to `CN(C)CCCNC(=O)COc1ccc(CCCCNC(=N)NC(=O)c2nc(Cl)c(N)nc2N)cc1` (as salt: methanesulfonate), the melting point fell in the range of 187 to 190 °C.

On to `CS(=O)(=O)O.CS(=O)(=O)O.N=C(NCCCCc1ccc(C(=O)N2CCNCC2)cc1)NC(=O)c1nc(Cl)c(N)nc1N` [PSA23607, N-(3,5-Diamino-6-chloropyrazine-2-carbonyl)-N′-{4-[4-(piperazine-1-carbonyl)phenyl]butyl}guanidine bis-methanesulfonate], for which the melting point lay within 122 to 124 °C. Further, the solubility in data set [1] (0.12% NaCl solution, read-out: S1 = Solubility in 0.12% NaCl Solution) was greater than 5000 µg/mL. For the same molecule, in data set [2], it took 12.5 ± 0.5 nM to reach half-maximal inhibition (IC50).

For the molecule `N=C(NCCCCc1ccc(OCC(N)=O)cc1)NC(=O)c1nc(Cl)c(N)nc1N` [compound 9714], the solubility in data set [1] (setting [3]) was less than 100 µg/mL; in data set [1] (0.9% sodium chloride solution (normal saline), 0.9% NaCl solution (normal saline), read-out: S2 = Solubility in 0.9% NaCl Solution (normal Saline)) it was less than 100 µg/mL. Moreover, the IC50 in data set [2] is 15.2 nM. In data set [2], the “Fold Amiloride (PSA4022 = 100)” value is 62.

For `N=C(NCCCCc1ccc(OCC(=O)NCCN)cc1)NC(=O)c1nc(Cl)c(N)nc1N` [compound 237778], the solubility in data set [1] (setting [3]) was greater than 5000 µg/mL. In data set [2], the IC50 turned out to be 5 ± 2 nM and the “Fold Amiloride (PSA4022 = 100)” value is recorded as 146.

Values taken from US20070021439A1, “Methods of reducing risk of infection from pathogens with soluble amide and ester pyrazinoylguanidine sodium channel blockers” (Parion Sciences, Inc., priority 2005, published 2007).
